Experimental data from US9945845B2, “Methods of screening using amphibians” (priority 2009, dated 2018).
Structures can show the parent of a compound that is named as a salt. Where two headings read alike, the source gives them in different places.

System: Xenopus embryos
Details: for Type of edema Ventral: ‡ = edemas also detected in the gut; for Type of edema Periocular: * = causing bulging eyes, # = bilateral, causing narrow-set eyes
Experimental: 10-μl aliquots of the chemicals were transferred from the mother plates with a liquid handling robot (Aquarius, Tecan) into 96-well tissue culture plates to generate diluted stock plates (2 mM in DMSO; 50 μl final volume). […] Once embryos reached stage 31 (37 hpf), 10-μl aliquots of the diluted chemicals were added to the wells. […] Negative control wells contained embryos in screening medium and 0.1×MMR only. Embryos were treated with the chemicals in a humidified incubator at 23° C. over a timeframe of 4 days. Embryos were manually scored for the presence of edema or other morphological phenotypes using a teaching dissecting microscope (SV6; Carl Zeiss). Two investigators performed separately the scoring daily at stages 39 (56 hpf), 41 (76 hpf), 45 (98 hpf), and 47 (120 hpf). Dead embryos were removed and 100 μl of water was added daily to each well to compensate for fluid evaporation. […] For imaging at the end of the experiments. Xenopus tadpoles were anesthetized with 0.05% tricaine (Sigma #A5040) in 0.1×MMR. Images were captured using a stereomicroscope (SteREO Lumar V12; Carl Zeiss) equipped with a digital camera (AxioCam Color; Carl Zeiss).
Xenopus late tailbud embryos at stage 31 (37 hpf) were selected for compound treatment. […] Embryos were arrayed into 48-well dishes (five per well) and treated with test compounds at a concentration of 20 μM in the presence of 1% DMSO. […] All 48-well dishes also contained replicates of negative controls (1% DMSO). Embryos were monitored daily over a period of four days for edema formation. In addition, drug-induced lethality and other externally visible phenotypes were scored. On average, 320 compounds were screened per week.

[1] = compounds causing lethality, 20 μM, 1% DMSO, treatment from stage 31, Nieuwkoop & Faber stage
[2] = compounds causing cytotoxicity, 20 μM, 1% DMSO, treatment from stage 31, Nieuwkoop & Faber stage
[3] = compounds causing edema, 20 μM, 1% DMSO, treatment from stage 31, scored to stage 47
[4] = onset of edema, 20 μM, 1% DMSO, treatment from stage 31, Nieuwkoop & Faber stage
[5] = embryonic stage, — = no stage of lethality given
[6] = onset of pigmentation defects, 20 μM, 1% DMSO
[7] = compounds causing other phenotypic defects, 20 μM, scored to stage 47
[8] = onset of other phenotypic defects, 20 μM, 1% DMSO

CC(C)Cc1ccc(C(C)C(=O)O)cc1 (racemic) [(±)-Ibuprofen, alpha-Methyl-4-(isobutyl)phenylacetic acid]
Lethality (NF) (Xenopus laevis, in vivo): 45 NF

O=C(O)CCCCC1CCSS1 (racemic) [(±)-alpha-Lipoic Acid]
Type of edema Pericordial (embryonic stage): 39 embryonic stages according to Nieuwkoop and Faber (NF)
Type of edema Pronephric (embryonic stage): 42 embryonic stages according to Nieuwkoop and Faber (NF)

CCCCCCCCCCCCCCCCCC(=O)OC(CC(=O)O)C[N+](C)(C)C.[Cl-] (racemic) [DL-Stearoylcarnitine chloride]
Lethality (NF) [1]: 41 NF

CCCCCCCCCCCCCCCC(=O)OC(CC(=O)O)C[N+](C)(C)C.[Cl-] (racemic) [Palmitoyl-DL-Carnitine chloride]
Lethality (NF) [2]: 32 NF

CCCCCCCCCCCCCCCC(=O)NCC(COP(=O)([O-])OCC[N+](C)(C)C)OCC (racemic) [rac-2-Ethoxy-3-hexadecanamido-1-propylphosphocholine]
Lethality (NF) [2]: 32 NF

CCCCCCCCCCCCCCCCCC(=O)NCC(COP(=O)([O-])OCC[N+](C)(C)C)OCC (racemic) [rac-2-Ethoxy-3-octadecanamido-1-propylphospocholine]
Lethality (NF) [2]: 32 NF

O.c1cnc2c(c1)ccc1cccnc12 [1,10-Phenanthroline monohydrate]
Lethality (NF) [3]: 46 NF
Onset (NF) [4]: 39/40

O.c1cnc2c(c1)ccc1cccnc12 [1,10-Phenenthroline monohydrate]
Type of edema Pericordial (embryonic stage): 39/40
Lethality [5]: 46 embryonic stages according to Nieuwkoop and Faber (NF)
Type of edema Ventral (embryonic stage): 41/42

S=C(Nc1ccccc1)Nc1nccs1 [1-Phenyl-3-(2-thiazolyl)-2-thiourea]
Onset (NF) [6]: 33/34

COC1=C(OC)C(=O)c2ccccc2C1=O [2,3-Dimethoxy-1,4-naphthoquinone]
Lethality (NF) [7]: 42 NF

C[N+](C)(C)CCC(=O)c1cccc2ccccc12.[I-] [2-(alpha-Naphthoyl)ethyltrimethylammonium iodide]
Lethality (NF) [2]: 32 NF

N#CCCN.N#CCCN.O=C(O)/C=C/C(=O)O [3-Aminopropionitrile fumarate]
Onset (NF) [8]: 46 NF

O=C(O)c1cc([N+](=O)[O-])ccc1NCCCc1ccccc1 [5-Nitro-2-(3-phenylpropylamino)benzoic acid]
Lethality (NF) [2]: 32 NF

O=c1[nH]c2ccccc2c2ccccc12 [6(5H-Phenanthridinone, 6(5H)-Phenanthridinone]
Lethality (NF) [3]: 47 NF
Type of edema Pericordial (embryonic stage): 45 embryonic stages according to Nieuwkoop and Faber (NF)
Type of edema Periocular (embryonic stage): 45 embryonic stages according to Nieuwkoop and Faber (NF)
Lethality [5]: 47 embryonic stages according to Nieuwkoop and Faber (NF)
Type of edema Ventral (embryonic stage): 45 embryonic stages according to Nieuwkoop and Faber (NF)

CC1=C(/C=C/C(C)=C/C=C/C(C)=C\C(=O)O)C(C)(C)CCC1 [13-cis-retinoic acid]
Lethality (NF) [3]: 46 NF
Type of edema Pronephric (embryonic stage): 45 embryonic stages according to Nieuwkoop and Faber (NF)
Type of edema Cerebral (embryonic stage, + = cerebral edema extending dorso-anteriorly and displacing the eyes): 45+ embryonic stages according to Nieuwkoop and Faber (NF)
Lethality [5]: 46 embryonic stages according to Nieuwkoop and Faber (NF)
Type of edema Ventral (embryonic stage): 41/42
Onset (NF) [4]: 41/42

CC[C@@H]1Cc2cc(O)ccc2C2=C1c1ccc(O)cc1C[C@H]2CC [(5R, 11R)-5,11-Diethyl-5,6,11,12-tetrahydro-2,8-chrysenediol]
Lethality (NF) [1]: 41 NF

CN[C@@H](C)[C@H](O)c1ccccc1.CN[C@@H](C)[C@H](O)c1ccccc1.O=S(=O)(O)O [(-)-Ephedrine hemisulfate]
Onset (NF) [6]: 33/34

CS(=O)(=O)O.Cc1c(C(=O)c2cccc3ccccc23)c2cccc3c2n1[C@H](CN1CCOCC1)CO3 [(R)-(+)-WIN 55,212-2 mesylate, (R)-(+)-[2,3-Dihydro-5-methyl-3[(morpholinyl)methyl]pyrrolo[1,2,3-de]-1,4-benzoxazinyl]-(1-naphthalenyl)methanone mesylate]
Lethality (NF) [2]: 32 NF

CC[C@@]1(O)C(=O)OCc2c1cc1n(c2=O)Cc2cc3ccccc3nc2-1 [(S)-(+)-Camptothecin]
Lethality (NF) [7]: 41/42
Onset (NF) [8]: 39 NF

CCn1cc(C(=O)O)c(=O)c2ccc(Cc3ccccc3)nc21 [Amfonelic acid, 7-Benzyl-1-ethyl-1,4-dihydro-4-oxo-1,8-naphthyridine-3-carboxylic acid]
Onset (NF) [6]: 33/34

CCNC(=O)N1CCN(CCCC(c2ccc(F)cc2)c2ccc(F)cc2)CC1.Cl [Amperozide hydrochloride, 4-[4,4-bis(4-Fluorophenyl)butyl]-N-ethyl-1-piperazinecarboxamide hydrochloride]
Type of edema Pericordial (embryonic stage): 41/42
Type of edema Periocular (embryonic stage): 45 embryonic stages according to Nieuwkoop and Faber (NF)
Type of edema Ventral (embryonic stage): 41/42
Onset (NF) [4]: 41/42

CN1CCc2cccc3c2[C@H]1Cc1ccc(O)c(O)c1-3 [Apomorphine hydrochloride hemihydrate, 10,11-Dihydroxyaporphine hydrochloride hemihydrate]
Onset (NF) [6]: 33/34

CC(C)(C)c1ccc(S(=O)(=O)/C=C/C#N)cc1 [Bay 11-7085, (E)-3-(4-t-Butylphenylsulfortyl)-2-propenenitrile]
Lethality (NF) [2]: 32 NF

C[C@H]1CCC/C=C/[C@@H]2C[C@H](O)C[C@H]2[C@H](O)/C=C/C(=O)O1 [Brefeldin A]
Lethality (NF) [2]: 33/34

Nc1nc2ccc(Cl)cc2c2nc(-c3ccco3)nn12 [CGS -15943]
Type of edema Pericordial (embryonic stage): 41/42
Type of edema Pronephric (embryonic stage): 45 embryonic stages according to Nieuwkoop and Faber (NF)
Type of edema Ventral (embryonic stage): 45 embryonic stages according to Nieuwkoop and Faber (NF)
Lethality (in vivo): 46 embryonic stages according to Nieuwkoop and Faber (NF)

Nc1nc2ccc(Cl)cc2c2nc(-c3ccco3)nn12 [CGS-15943, 9-Chloro-2-(2-furyl)[1,2,4]triazolo[1,5-c]quinazolin-5-amine]
Lethality (NF) (Xenopus laevis, in vivo): 46 NF
Onset (NF) (in vivo): 41/42

O=C(/C=C/c1ccc(O)c(O)c1)OCCc1ccccc1 [Caffeic acid phenethyl ester]
Lethality (NF) (compounds causing pigmentation defects, 20 μM, scored to stage 47): 39 NF
Onset (NF) [6]: 33/34

CNc1ccc2oc(C[C@H]3O[C@@]4(CC[C@H]3C)O[C@H]([C@H](C)C(=O)c3ccc[nH]3)[C@H](C)C[C@H]4C)nc2c1C(=O)O [Calcimycin]
Lethality (NF) [2]: 32 NF

CC1(C(=O)O)C2CCC(O2)C1(C)C(=O)O (centres unmarked) [Cantharidic Acid]
Lethality (NF) [2]: 32 NF

C[C@@]12C(=O)OC(=O)[C@]1(C)[C@H]1CC[C@@H]2O1 [Cantharidin]
Lethality (NF) [2]: 32 NF

CN1CCC[C@@H]1CCO[C@](C)(c1ccccc1)c1ccc(Cl)cc1 [Clemastine fumarate]
Type of edema Pericordial (embryonic stage): 46 embryonic stages according to Nieuwkoop and Faber (NF)
Type of edema Periocular (embryonic stage): 46 embryonic stages according to Nieuwkoop and Faber (NF)
Type of edema Ventral (embryonic stage): 45 embryonic stages according to Nieuwkoop and Faber (NF)

S=C(OC1CC2CC1C1CCCC21)[S][K] [D-609 potassium, Carbonodithioic acid, O-(octahydro-4,7-methano-1H-inden-5-yl) ester potassium]
Lethality (NF) [2]: 33/34

O=c1c2ccccc2[nH]c(=S)n1CCN1CCC(=C(c2ccc(F)cc2)c2ccc(F)cc2)CC1 [Diacylglycerol Kinase Inhibitor II]
Type of edema Pronephric (embryonic stage): 45 embryonic stages according to Nieuwkoop and Faber (NF)
Type of edema Periocular (embryonic stage): 46 embryonic stages according to Nieuwkoop and Faber (NF)
Type of edema Ventral (embryonic stage): 41/42
Onset (NF) [4]: 41/42

Cc1nc2sccn2c(=O)c1CCN1CCC(=C(c2ccccc2)c2ccc(F)cc2)CC1 [Diacylglycerol kinase inhibitor I]
Type of edema Periocular (embryonic stage): 45 embryonic stages according to Nieuwkoop and Faber (NF)
Type of edema Ventral (embryonic stage): 45 embryonic stages according to Nieuwkoop and Faber (NF)
Onset (NF) [4]: 45 NF

c1ccc2c(c1)[I+]c1ccccc1-2 [Diphenyleneiodonium chloride, [1,1′-Biphenyl]-2,2′-diyiodonium chloride]
Lethality (NF) (Xenopus laevis, in vivo): 42 NF

CCCCCCCCCCCCCCCCCCOCC(COP(=O)([O-])OCC[N+](C)(C)C)OC (centres unmarked) [ET-18-OCH3, 3,5,9-Trioxa-4-phosphaheptacosan-1-aminium]
Lethality (NF) [1]: 37/38

O=c1c2ccccc2[se]n1-c1ccccc1 [Ebselen, 2-Phenyl-1,2-benzisoselenazol-3(2H)-one]
Lethality (NF) [2]: 32 NF

COC(=O)c1c(C)[nH]c(C)c1C(=O)c1ccccc1Cc1ccccc1 [FPL 64176, 2,5-Dimethyl-4-[2-(phenylmethyl)benzoyl]-1H-pyrrole-3-carboxylic acid methyl ester]
Lethality (NF) [1]: 40 NF

CC(C)=CCCC(C)=CCCC(C)=CCSc1ccccc1C(=O)O [Farnesylthiosalicylic acid]
Lethality (NF) [2]: 32 NF
